The results in this text go back to patent US20140058103A1, “Inhibitors of PI3K-Delta and Methods of Their Use and Manufacture” (Exelixis, Inc., priority 2010, published 2014).

The structures appear in SMILES notation. pIC50: −log10 of the molar value.

Sequence of PI3K delta (O00329 whole entry): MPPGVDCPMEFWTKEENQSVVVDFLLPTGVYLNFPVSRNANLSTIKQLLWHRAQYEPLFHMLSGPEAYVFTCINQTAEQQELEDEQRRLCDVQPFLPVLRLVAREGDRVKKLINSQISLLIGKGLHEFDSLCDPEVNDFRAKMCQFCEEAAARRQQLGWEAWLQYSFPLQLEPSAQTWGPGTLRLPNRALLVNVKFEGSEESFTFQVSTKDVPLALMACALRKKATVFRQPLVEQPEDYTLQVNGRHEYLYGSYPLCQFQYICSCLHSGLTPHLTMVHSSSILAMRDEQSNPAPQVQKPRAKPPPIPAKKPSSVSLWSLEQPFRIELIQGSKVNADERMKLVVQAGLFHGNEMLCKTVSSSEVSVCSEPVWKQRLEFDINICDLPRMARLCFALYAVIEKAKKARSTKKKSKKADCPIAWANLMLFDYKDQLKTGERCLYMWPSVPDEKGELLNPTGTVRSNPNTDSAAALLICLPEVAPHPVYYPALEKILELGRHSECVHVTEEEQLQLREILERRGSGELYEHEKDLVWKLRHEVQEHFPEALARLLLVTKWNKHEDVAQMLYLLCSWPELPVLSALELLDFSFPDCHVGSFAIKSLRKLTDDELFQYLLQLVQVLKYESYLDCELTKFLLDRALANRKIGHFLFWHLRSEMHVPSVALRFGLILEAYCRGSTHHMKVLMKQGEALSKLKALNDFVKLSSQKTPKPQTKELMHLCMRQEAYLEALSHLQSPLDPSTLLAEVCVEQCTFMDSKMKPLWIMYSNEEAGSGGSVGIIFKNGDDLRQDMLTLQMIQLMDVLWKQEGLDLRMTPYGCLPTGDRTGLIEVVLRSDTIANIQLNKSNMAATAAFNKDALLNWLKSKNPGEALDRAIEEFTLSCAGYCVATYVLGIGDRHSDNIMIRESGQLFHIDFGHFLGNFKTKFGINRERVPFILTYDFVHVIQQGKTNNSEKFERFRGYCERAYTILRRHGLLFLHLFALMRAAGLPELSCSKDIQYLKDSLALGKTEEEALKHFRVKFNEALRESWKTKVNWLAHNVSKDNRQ
Sequence of PI3K delta (P27986 whole entry partner): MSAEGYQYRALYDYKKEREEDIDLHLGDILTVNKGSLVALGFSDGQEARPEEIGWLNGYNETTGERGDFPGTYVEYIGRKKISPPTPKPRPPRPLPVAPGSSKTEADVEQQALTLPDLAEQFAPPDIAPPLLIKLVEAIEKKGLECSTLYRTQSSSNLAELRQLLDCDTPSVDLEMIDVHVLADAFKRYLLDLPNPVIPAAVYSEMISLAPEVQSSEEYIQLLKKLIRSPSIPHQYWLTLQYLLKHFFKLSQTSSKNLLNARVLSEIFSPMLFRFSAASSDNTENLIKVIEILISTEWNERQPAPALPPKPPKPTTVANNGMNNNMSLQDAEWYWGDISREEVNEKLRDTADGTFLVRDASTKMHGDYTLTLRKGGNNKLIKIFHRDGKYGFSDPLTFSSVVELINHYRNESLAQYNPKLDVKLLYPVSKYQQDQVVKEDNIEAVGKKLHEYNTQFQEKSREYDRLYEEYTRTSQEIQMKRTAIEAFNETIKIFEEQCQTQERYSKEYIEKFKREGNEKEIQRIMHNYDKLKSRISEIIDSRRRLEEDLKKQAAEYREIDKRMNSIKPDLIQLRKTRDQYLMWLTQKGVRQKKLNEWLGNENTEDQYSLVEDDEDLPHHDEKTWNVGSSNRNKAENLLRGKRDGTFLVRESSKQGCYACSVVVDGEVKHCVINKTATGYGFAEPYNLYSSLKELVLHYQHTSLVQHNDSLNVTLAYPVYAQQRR

The target of the test is PI3K delta (Homo sapiens, UniProt O00329). Briefly: Luciferase-coupled chemiluminescence kinase assay (ATP consumption, KinaseGlo). Format: biochemical. The method, boiled down:
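Compound, kinase and ATP (≤ KM) reacted 2 h at ambient temperature, then remaining ATP quantified with luciferase-luciferin (KinaseGlo) luminescence as percent consumed.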
(Kinase-Glo measures the ATP left after a reaction by luminescence.)
As a reminder, the pIC50 is −log10 of the IC50, conventionally taken in molar units. As for `CCn1c(C(=O)NCC(C)(C)O)nc2c(N3CCC4(CC3)C(=O)Nc3ccccc34)ncnc21` [Compound 224, 9-ethyl-N-(2-hydroxy-2-methylpropyl)-6-(2-oxo-1,2-dihydro-1′H-spiro[indole-3,4′-piperidin]-1′-yl)-9H-purine-8-carboxamide], the pIC50 is greater than 7.30.

`CCn1c(C(=O)NCCC(C)C)nc2c(N3CCC4(CC3)C(=O)Nc3ccccc34)ncnc21` [Compound 225, 9-ethyl-N-(3-methylbutyl)-6-(2-oxo-1,2-dihydro-1′H-spiro[indole-3,4′-piperidin]-1′-yl)-9H-purine-8-carboxamide]: the pIC50 was 6.60 to 7.30.

Regarding `CCn1c(C(=O)NC2COC2)nc2c(N3CCC4(CC3)C(=O)Nc3ccccc34)ncnc21` [Compound 226, 9-ethyl-N-oxetan-3-yl-6-(2-oxo-1,2-dihydro-1′H-spiro[indole-3,4′-piperidin]-1′-yl)-9H-purine-8-carboxamide], the pIC50 was greater than 7.30.

On to `CCCc1nnc(-c2nc3c(N4CCC5(CC4)C(=O)Nc4ccccc45)ncnc3n2CC)o1` [Compound 227, 1′-[9-ethyl-8-(5-propyl-1,3,4-oxadiazol-2-yl)-9H-purin-6-yl]spiro[indole-3,4′-piperidin]-2(1H)-one], for which the pIC50 is greater than 7.30.

As for `Cn1c(C(=O)NCC2CC2)nc2c(N3CCC(n4c(=O)[nH]c5cc(Cl)ccc54)CC3)ncnc21` [Compound 228, 6-[4-(5-chloro-2-oxo-2,3-dihydro-1H-benzimidazol-1-yl)piperidin-1-yl]-N-(cyclopropylmethyl)-9-methyl-9H-purine-8-carboxamide], the negative-log IC50 (pIC50) was 5.82 to 6.30.

As for `Cn1c(C(=O)NCC2CC2)nc2c(N3CCC(n4c(=O)[nH]c5ccc(Cl)cc54)CC3)ncnc21` [Compound 229, 6-[4-(6-chloro-2-oxo-2,3-dihydro-1H-benzimidazol-1-yl)piperidin-1-yl]-N-(cyclopropylmethyl)-9-methyl-9H-purine-8-carboxamide], the pIC50 is 5.82 to 6.30.

`Cn1c(C(=O)NCC2CC2)nc2c(N3CCC(n4c(=O)[nH]c5c(Cl)cccc54)CC3)ncnc21` [Compound 230, 6-[4-(4-chloro-2-oxo-2,3-dihydro-1H-benzimidazol-1-yl)piperidin-1-yl]-N-(cyclopropylmethyl)-9-methyl-9H-purine-8-carboxamide] had a pIC50 of 6.60 to 7.30.

Consider `Cn1c(-c2cnn(CC3CCC3)c2)nc2c(N3CCC(n4c(=O)[nH]c5ccccc54)CC3)ncnc21` [Compound 231], for which the pIC50 is greater than 7.30.

In turn, `CCCCc1nnc(-c2nc3c(N4CCC(n5c(=O)[nH]c6ccccc65)CC4)ncnc3n2C)o1` [Compound 232, 1-(1-[8-(5-butyl-1,3,4-oxadiazol-2-yl)-9-methyl-9H-purin-6-yl]piperidin-4-yl)-1,3-dihydro-2H-benzimidazol-2-one] had a negative logarithm of the IC50 (pIC50) greater than 7.30.

Turning to `CC(C)CCn1cc(-c2nc3c(N4CCC(n5c(=O)[nH]c6ccccc65)CC4)ncnc3n2C)cn1` [Compound 233, 1-(1-{9-methyl-8-[1-(3-methylbutyl)-1H-pyrazol-4-yl]-9H-purin-6-yl}piperidin-4-yl)-1,3-dihydro-2H-benzimidazol-2-one], the pIC50 is 6.60 to 7.30.

In the case of `CCCn1cc(-c2nc3c(N4CCC5(CC4)C(=O)Nc4ccccc45)ncnc3n2C)cn1` [Compound 234, 1′-[9-methyl-8-(1-propyl-1H-pyrazol-4-yl)-9H-purin-6-yl]spiro[indole-3,4′-piperidin]-2(1H)-one], the pIC50 is greater than 7.30.

`Cn1c(C(=O)NCC2CC2)nc2c(N3CC[C@H](c4ccccc4)[C@@H](O)C3)ncnc21` [Compound 235, N-(cyclopropylmethyl)-6-[(3R,4R)-3-hydroxy-4-phenylpiperidin-1-yl]-9-methyl-9H-purine-8-carboxamide]: the pIC50 is 5.82 to 6.30.

For the molecule `CCc1nnc(-c2nc3c(N4CCC5(CC4)C(=O)Nc4ccccc45)ncnc3n2CC)o1` [Compound 236, 1′-[9-ethyl-8-(5-ethyl-1,3,4-oxadiazol-2-yl)-9H-purin-6-yl]spiro[indole-3,4′-piperidin]-2(1H)-one], the pIC50 was greater than 7.30.

Consider `CCn1cc(-c2nc3c(N4CCC5(CC4)C(=O)Nc4ccccc45)ncnc3n2C)cn1` [Compound 237, 1′-[8-(1-Ethyl-1H-pyrazol-4-yl)-9-methyl-9H-purin-6-yl]spiro[indole-3,4′-piperidin]-2(1H)-one], for which the pIC50 is greater than 7.30.

`Cn1c(-c2cn[nH]c2)nc2c(N3CCC4(CC3)C(=O)Nc3ccccc34)ncnc21` [Compound 238, 1′-[9-methyl-8-(1H-pyrazol-4-yl)-9H-purin-6-yl]spiro[indole-3,4′-piperidin]-2(1H)-one]: the pIC50 was greater than 7.30.

On to `Cn1cc(-c2nc3c(N4CCC5(CC4)C(=O)Nc4ccccc45)ncnc3n2C)cn1` [Compound 239, 1′-[9-methyl-8-(1-methyl-1H-pyrazol-4-yl)-9H-purin-6-yl]spiro[indole-3,4′-piperidin]-2(1H)-one], for which the pIC50 is greater than 7.30.

In the case of `Cn1c(C(=O)NCC2CC2)nc2c(N3CCC(n4c(=O)[nH]c5ncccc54)CC3)ncnc21` [Compound 240, N-(cyclopropylmethyl)-9-methyl-6-[4-(2-oxo-2,3-dihydro-1H-imidazo[4,5-b]pyridin-1-yl)piperidin-1-yl]-9H-purine-8-carboxamide], the pIC50 is 6.60 to 7.30.

`Cc1c(-c2nc3c(N4CCC(n5c(=O)[nH]c6ccccc65)CC4)ncnc3n2C)cnn1C` [Compound 241, 1-{1-[8-(1,5-dimethyl-1H-pyrazol-4-yl)-9-methyl-9H-purin-6-yl]piperidin-4-yl}-1,3-dihydro-2H-benzimidazol-2-one]: the pIC50 is greater than 7.30.

`Cc1[nH]ncc1-c1nc2c(N3CCC(n4c(=O)[nH]c5ccccc54)CC3)ncnc2n1C` [Compound 242, 1-{1-[9-methyl-8-(5-methyl-1H-pyrazol-4-yl)-9H-purin-6-yl]piperidin-4-yl}-1,3-dihydro-2H-benzimidazol-2-one] had a pIC50 greater than 7.30.

Take `CCn1c(-c2cnn(C)c2)nc2c(N3CCC(n4c(=O)[nH]c5ccccc54)CC3)ncnc21` [Compound 243, 1-{1-[9-ethyl-8-(1-methyl-1H-pyrazol-4-yl)-9H-purin-6-yl]piperidin-4-yl}-1,3-dihydro-2H-benzimidazol-2-one]: the pIC50 was greater than 7.30.

As for `CCn1cc(-c2nc3c(N4CCC(n5c(=O)[nH]c6ccccc65)CC4)ncnc3n2CC)cn1` [Compound 244, 1-{1-[9-ethyl-8-(1-ethyl-1H-pyrazol-4-yl)-9H-purin-6-yl]piperidin-4-yl}-1,3-dihydro-2H-benzimidazol-2-one], the pIC50 is greater than 7.30.

`CCn1c(-c2cnn(C)c2)nc2c(N3CCC4(CC3)C(=O)Nc3ccccc34)ncnc21` [Compound 245, 1′-[9-ethyl-8-(1-methyl-1H-pyrazol-4-yl)-9H-purin-6-yl]spiro[indole-3,4′-piperidin]-2(1H)-one] showed a pIC50 greater than 7.30.

For the molecule `Cc1c(-c2nc3c(N4CCC5(CC4)C(=O)Nc4ccccc45)ncnc3n2C)cnn1C` [Compound 246, 1′-[8-(1,5-dimethyl-1H-pyrazol-4-yl)-9-methyl-9H-purin-6-yl]spiro[indole-3,4′-piperidin]-2(1H)-one], the pIC50 is greater than 7.30.

Consider `Cc1[nH]ncc1-c1nc2c(N3CCC4(CC3)C(=O)Nc3ccccc34)ncnc2n1C` [Compound 247, 1′-[9-methyl-8-(5-methyl-1H-pyrazol-4-yl)-9H-purin-6-yl]spiro[indole-3,4′-piperidin]-2(1H)-one], for which the pIC50 is greater than 7.30.

`Cn1c(C(=O)NCC2CC2)nc2c(N3CCC(N4C(=O)NCc5ccccc54)CC3)ncnc21` [Compound 248, N-(cyclopropylmethyl)-9-methyl-6-[4-(2-oxo-3,4-dihydroquinazolin-1(2H)-yl)piperidin-1-yl]-9H-purine-8-carboxamide] showed a pIC50 of 6.30 to 6.60.

Turning to `Cn1c(C(=O)NCC2CC2)nc2c(N3CCC4(CC3)Nc3ccccc3NC4=O)ncnc21` [Compound 249, N-(cyclopropylmethyl)-9-methyl-6-(3′-oxo-3′,4′-dihydro-1H,1′H-spiro[piperidine-4,2′-quinoxalin]-1-yl)-9H-purine-8-carboxamide], the pIC50 is 5.82 to 6.30.

In the case of `CCn1cc(-c2nc3c(N4CCC5(CC4)C(=O)Nc4ccccc45)ncnc3n2CC)cn1` [Compound 250, 1′-[9-ethyl-8-(1-ethyl-1H-pyrazol-4-yl)-9H-purin-6-yl]spiro[indole-3,4′-piperidin]-2(1H)-one], the pIC50 is greater than 7.30.

As for `CCCn1cc(-c2nc3c(N4CCC5(CC4)C(=O)Nc4ccccc45)ncnc3n2CC)cn1` [Compound 251, 1′-[9-ethyl-8-(1-propyl-1H-pyrazol-4-yl)-9H-purin-6-yl]spiro[indole-3,4′-piperidin]-2(1H)-one], the pIC50 is greater than 7.30.

As to `CCn1c(-c2cn[nH]c2)nc2c(N3CCC4(CC3)C(=O)Nc3ccccc34)ncnc21` [Compound 252, 1′-[9-ethyl-8-(1H-pyrazol-4-yl)-9H-purin-6-yl]spiro[indole-3,4′-piperidin]-2(1H)-one], the pIC50 is greater than 7.30.

`Cn1c(C(=O)NCC2CC2)nc2c(N3CCCC(n4c(=O)[nH]c5ccccc54)C3)ncnc21` (stereo not drawn) [Compound 256, N-(cyclopropylmethyl)-9-methyl-6-[3-(2-oxo-2,3-dihydro-1H-benzimidazol-1-yl)piperidin-1-yl]-9H-purine-8-carboxamide] gave a pIC50 of 6.30 to 6.60.

Molecule `Cn1c(-n2cnc3ccccc32)nc2c(N3CCC(n4c(=O)[nH]c5ccccc54)CC3)ncnc21` [Compound 259, 1-{1-[8-(1H-benzimidazol-1-yl)-9-methyl-9H-purin-6-yl]piperidin-4-yl}-1,3-dihydro-2H-benzimidazol-2-one] gave a pIC50 greater than 7.30.

Take `CCn1c(-c2cnn(C)c2C)nc2c(N3CCC(n4c(=O)[nH]c5ccccc54)CC3)ncnc21` [Compound 260, 1-{1-[8-(1,5-dimethyl-1H-pyrazol-4-yl)-9-ethyl-9H-purin-6-yl]piperidin-4-yl}-1,3-dihydro-2H-benzimidazol-2-one]: the pIC50 is greater than 7.30.

Turning to `CCn1c(-c2cnn(C)c2C)nc2c(N3CCC4(CC3)C(=O)Nc3ccccc34)ncnc21` [Compound 261, 1′-[8-(1,5-dimethyl-1H-pyrazol-4-yl)-9-ethyl-9H-purin-6-yl]spiro[indole-3,4′-piperidin]-2(1H)-one], the pIC50 is greater than 7.30.
